# Read-outs that look alike come from different tables or passages of the source.
# Legend:
# human 5-HT2A receptor = human 5-HT2A receptor (Homo sapiens (Human), UniProt P28223); assay: Radioligand binding assay, [3H]-ketanserin, human 5-HT2A receptor
# Method in brief: (§1)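 Incubation was 1 h at RT, using 1.1 nM [3H]-ketanserin at 5-HT2A or 0.5 nM [3H]-spiperone at D3, on membranes of transiently transfected HEK293 EBNA cells. Nonspecific binding was set with 10 μM unlabelled spiperone.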
# human D3 receptor = human D3 receptor (Homo sapiens (Human), UniProt P35462); assay: Radioligand binding assay, [3H]-spiperone, human D3 receptor; details: membranes of HEK293 EBNA cells expressing human D3; 0.5 nM [3H]-spiperone
# Sequence of human D3 receptor (P35462 whole entry): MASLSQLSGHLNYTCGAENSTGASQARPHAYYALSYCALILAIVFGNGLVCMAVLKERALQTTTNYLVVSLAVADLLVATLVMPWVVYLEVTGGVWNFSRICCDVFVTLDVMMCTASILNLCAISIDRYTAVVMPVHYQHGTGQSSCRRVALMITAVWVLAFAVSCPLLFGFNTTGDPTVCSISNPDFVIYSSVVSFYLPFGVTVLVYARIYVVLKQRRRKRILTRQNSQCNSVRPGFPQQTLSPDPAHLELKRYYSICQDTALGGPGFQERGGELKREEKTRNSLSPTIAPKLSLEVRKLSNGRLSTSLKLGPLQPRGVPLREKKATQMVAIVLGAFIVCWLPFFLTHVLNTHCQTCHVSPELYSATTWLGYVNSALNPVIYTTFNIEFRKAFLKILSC
# Method in brief: as §1
# human D2 receptor = human D2 receptor (Homo sapiens (Human), UniProt P14416); assay: Radioligand binding assay, [3H]-spiperone, human D2 receptor; details: membranes of HEK293 EBNA cells expressing human D2; 0.7 nM [3H]-spiperone
# Sequence of human D2 receptor (P14416 whole entry): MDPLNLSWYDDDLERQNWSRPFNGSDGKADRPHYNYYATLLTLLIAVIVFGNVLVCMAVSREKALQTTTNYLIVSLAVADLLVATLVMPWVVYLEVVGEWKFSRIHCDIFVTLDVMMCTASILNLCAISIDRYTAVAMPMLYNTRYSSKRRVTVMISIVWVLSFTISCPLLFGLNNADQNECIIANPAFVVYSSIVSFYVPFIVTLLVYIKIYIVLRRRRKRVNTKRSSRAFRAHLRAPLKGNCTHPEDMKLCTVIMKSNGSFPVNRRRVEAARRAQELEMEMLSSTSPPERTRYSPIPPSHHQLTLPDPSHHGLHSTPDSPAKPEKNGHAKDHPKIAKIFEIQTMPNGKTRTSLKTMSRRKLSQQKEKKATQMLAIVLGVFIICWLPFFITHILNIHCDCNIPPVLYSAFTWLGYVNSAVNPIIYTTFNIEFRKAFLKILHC
# Method in brief: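 Competition binding used ~0.7 nM [3H]-spiperone, 1 h at room temperature, pH 7.4 Tris/salt buffer, on transiently transfected HEK293 EBNA membranes bearing human D2.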
# [1] = membranes of HEK293 EBNA cells expressing human 5-HT2A, 1.1 nM [3H]-ketanserin
# Sequence of human 5-HT2A receptor (P28223 whole entry): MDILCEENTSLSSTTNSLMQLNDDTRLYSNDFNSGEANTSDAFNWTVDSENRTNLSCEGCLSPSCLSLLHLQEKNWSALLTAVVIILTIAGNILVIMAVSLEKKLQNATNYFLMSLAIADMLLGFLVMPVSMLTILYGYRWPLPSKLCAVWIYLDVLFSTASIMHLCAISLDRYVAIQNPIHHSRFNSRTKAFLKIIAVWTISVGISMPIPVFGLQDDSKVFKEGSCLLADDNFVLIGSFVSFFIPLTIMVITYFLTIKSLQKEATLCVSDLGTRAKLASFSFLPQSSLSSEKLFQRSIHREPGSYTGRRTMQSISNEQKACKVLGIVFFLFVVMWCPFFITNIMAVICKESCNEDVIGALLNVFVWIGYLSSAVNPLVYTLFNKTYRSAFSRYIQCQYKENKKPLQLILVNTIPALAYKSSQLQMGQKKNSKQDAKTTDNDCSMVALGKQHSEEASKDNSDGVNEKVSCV
Compound,melting point,Ki (human 5-HT2A receptor; [1]),Ki (human D3 receptor),Ki (human D2 receptor),Ki (human 5-HT2A receptor)
"CS(=O)(=O)c1ccc(C(=O)N[C@H]2CC[C@H](CCN3CCN(c4nccc5c4CCO5)CC3)CC2)s1 [Example 115, 5-Methanesulfonyl-thiophene-2-carboxylic acid trans-(4-{2-[4-(2,3-dihydro-furo[3,2-c]pyridin-4-yl)-piperazin-1-yl]-ethyl}-cyclohexyl)-amide]",229 °C,9.46 nM,33.8 nM,516 nM,–
"N#CCC(=O)N[C@H]1CC[C@H](CCN2CCN(c3nccc4c3CCO4)CC2)CC1 [Example 59, trans-2-Cyano-N-(4-{2-[4-(2,3-dihydro-furo[3,2-c]pyridin-4-yl)-piperazin-1-yl]-ethyl}-cyclohexyl)-acetamide]",188 °C,–,7.74 nM,702 nM,15.7 nM
"O=C(CC(F)(F)F)N[C@H]1CC[C@H](CCN2CCN(c3nccc4c3CCO4)CC2)CC1 [Example 60, trans-N-(4-{2-[4-(2,3-Dihydro-furo[3,2-c]pyridin-4-yl)-piperazin-1-yl]-ethyl}-cyclohexyl)-3,3,3-trifluoro-propionamide]",195.5 °C,11 nM,6.55 nM,688 nM,–
"Cc1cc(CC(=O)N[C@H]2CC[C@H](CCN3CCN(c4nccc5c4CCO5)CC3)CC2)on1 [Example 84, trans-N-(4-{2-[4-(2,3-Dihydro-furo[3,2-c]pyridin-4-yl)-piperazin-1-yl]-ethyl}-cyclohexyl)-2-(3-methyl-isoxazol-5-yl)-acetamide]",172.5 °C,15.2 nM,4.01 nM,1300 nM,–
"CCS(=O)(=O)N[C@H]1CC[C@H](CCN2CCN(c3nccc4c3CCO4)CC2)CC1 [Example 49, Ethanesulfonic acid trans-(4-{2-[4-(2,3-dihydro-furo[3,2-c]pyridin-4-yl)-piperazin-1-yl]-ethyl}-cyclohexyl)-amide]",224 °C,–,22 nM,1090 nM,17.6 nM
"O=CN[C@H]1CC[C@H](CCN2CCN(c3nccc4c3CCO4)CC2)CC1 [Example 83, trans-N-(4-{2-[4-(2,3-Dihydro-furo[3,2-c]pyridin-4-yl)-piperazin-1-yl]-ethyl}-cyclohexyl)-formamide]",170.5 °C,23.5 nM,28 nM,837 nM,–
"O=C(N[C@H]1CC[C@H](CCN2CCN(c3nccc4c3CCO4)CC2)CC1)C1CCC1 [Example 52, Cyclobutanecarboxylic acid trans-(4-{2-[4-(2,3-dihydro-furo[3,2-c]pyridin-4-yl)-piperazin-1-yl]-ethyl}-cyclohexyl)-amide]",202 °C,10.1 nM,15.7 nM,555 nM,–
"C[C@]1(O)CC[C@H](C(=O)N[C@H]2CC[C@H](CCN3CCN(c4nccc5c4CCO5)CC3)CC2)CC1 [Example 54, trans-4-Hydroxy-4-methyl-cyclohexanecarboxylic acid trans-(4-{2-[4-(2,3-dihydro-furo[3,2-c]pyridin-4-yl)-piperazin-1-yl]-ethyl}-cyclohexyl)-amide]",171 °C,12.6 nM,51.4 nM,506 nM,–
"O=C(CC1CCOCC1)N[C@H]1CC[C@H](CCN2CCN(c3nccc4c3CCO4)CC2)CC1 [Example 34, trans-N-(4-{2-[4-(2,3-Dihydrofuro[3,2-c]pyridin-4-yl)-piperazin-1-yl]-ethyl}-cyclohexyl)-2-(tetrahydro-2H-pyran-4-yl)-acetamide]",233 °C,20.1 nM,24.9 nM,869 nM,–
"O=C(CC1COC1)N[C@H]1CC[C@H](CCN2CCN(c3nccc4c3CCO4)CC2)CC1 [Example 77, trans-N-(4-{2-[4-(2,3-Dihydro-furo[3,2-c]pyridin-4-yl)-piperazin-1-yl]-ethyl}-cyclohexyl)-2-oxetan-3-yl-acetamide]",195 °C,11 nM,12.1 nM,755 nM,–
"O=C(N[C@H]1CC[C@H](CCN2CCN(c3nccc4c3CCO4)CC2)CC1)c1ccc(N2CCCCC2)cc1 [Example 56, trans-N-(4-{2-[4-(2,3-Dihydro-furo[3,2-c]pyridin-4-yl)-piperazin-1-yl]-ethyl}-cyclohexyl)-4-piperidin-1-yl-benzamide]",214.5 °C,–,44.3 nM,5340 nM,19.2 nM
"O=C(Cc1ccc2c(c1)OCO2)N[C@H]1CC[C@H](CCN2CCN(c3nccc4c3CCO4)CC2)CC1 [Example 122, trans-2-Benzo[1,3]dioxol-5-yl-N-(4-{2-[4-(2,3-dihydro-furo[3,2-c]pyridin-4-yl)-piperazin-1-yl]-ethyl}-cyclohexyl)-acetamide]",212 °C,33.7 nM,18.6 nM,3040 nM,–
"O=C(CC1CCCO1)N[C@H]1CC[C@H](CCN2CCN(c3nccc4c3CCO4)CC2)CC1 (mixture of isomers) [Example 64, trans-N-(4-{2-[4-(2,3-Dihydro-furo[3,2-c]pyridin-4-yl)-piperazin-1-yl]-ethyl}-cyclohexyl)-2-rac-(tetrahydro-furan-2-yl)-acetamide]",181.5 °C,16.7 nM,24.2 nM,1260 nM,–
"CC(=O)N[C@H]1CC[C@H](CCN2CCN(c3nc(C)cc4occc34)CC2)CC1 [Example 96, trans-N-(4-{2-[4-(6-Methyl-furo[3,2-c]pyridin-4-yl)-piperazin-1-yl]-ethyl}-cyclohexyl)-acetamide]",207.5 °C,75.2 nM,4.64 nM,249 nM,–
"CC(C)CCC(=O)N[C@H]1CC[C@H](CCN2CCN(c3nccc4c3CCO4)CC2)CC1 [Example 93, 4-Methyl-pentanoic acid trans-(4-{2-[4-(2,3-dihydro-furo[3,2-c]pyridin-4-yl)-piperazin-1-yl]-ethyl}-cyclohexyl)-amide]",182.5 °C,24.6 nM,22.7 nM,1280 nM,–
"O=C(N[C@H]1CC[C@H](CCN2CCN(c3nccc4c3CCO4)CC2)CC1)c1ccc2c(c1)OCO2 [Example 121, Benzo[1,3]dioxole-5-carboxylic acid trans-(4-{2-[4-(2,3-dihydro-furo[3,2-c]pyridin-4-yl)-piperazin-1-yl]-ethyl}-cyclohexyl)-amide]",243.5 °C,17.6 nM,21.8 nM,3370 nM,–
"O=C(N[C@H]1CC[C@H](CCN2CCN(c3nccc4c3CCO4)CC2)CC1)C1CC1(F)F (stereo partly drawn) [Example 74, trans-2,2-Difluoro-cyclopropanecarboxylic acid (4-{2-[4-(2,3-dihydro-furo[3,2-c]pyridin-4-yl)-piperazin-1-yl]-ethyl}-cyclohexyl)-amide]",184.5 °C,17.3 nM,23.8 nM,438 nM,–
"CC[C@@H](O)CC(=O)N[C@H]1CC[C@H](CCN2CCN(c3nccc4c3CCO4)CC2)CC1 [Example 140, (R)-3-Hydroxy-pentanoic acid trans-(4-{2-[4-(2,3-dihydro-furo[3,2-c]pyridin-4-yl)-piperazin-1-yl]-ethyl}-cyclohexyl)-amide]",161 °C,–,44.4 nM,843 nM,42 nM

# Reference: patent US8586579B2, “Anellated pyridine compounds” (Hoffmann-La Roche Inc., priority 2010, dated 2013)
